# Assay results as given in ChEMBL document CHEMBL5143520, “Discovery and optimization of new 6, 7-dihydroxy-1, 2, 3, 4-tetrahydroisoquinoline derivatives as potent influenza virus PAN inhibitors” (Eur J Med Chem, 2022).
# Active and inactive are the calls of the source. The rule behind the calls is not given here.
# Assays:
# Influenza A virus [1] = experiment: Antiviral activity against Influenza A virus A/WSN/33(H1N1) infected in MDCK cells assessed as reduction in virus induced cytopathic effect measured 48 hrs post infection by MTT assay; format: functional, organism-based
# [2] = Cytotoxicity against MDCK cells assessed as reduction in cell viability incubated for 48 hrs by MTT assay; format: toxicity, cell-based, Canis lupus familiaris; conditions: dog
# [3] = Selectivity index, ratio of CC50 for cytotoxicity against MDCK cells to EC50 for antiviral activity against Influenza A virus A/WSN/33(H1N1) infected in MDCK cells; format: toxicity, cell-based; conditions: dog, read-out: Ratio CC50/EC50
# [4] = molecular target: Polymerase acidic protein (Influenza A virus (A/Puerto Rico/8/1934(H1N1)), UniProt P03433); experiment: Inhibition of Influenza A virus N-terminal domain of PA endonuclease using 6FAM-TGGCAATATCAGCTCCACA-MGBNFQ as fluorescent substrate by FRET analysis
# Influenza A virus [5] = experiment: Antiviral activity against Influenza A virus A/WSN/33(H1N1) infected in human A549 cells assessed as reduction in nucleoprotein expression at 5 to 20 uM measured 24 hrs post infection by Western blot analysis; format: functional, organism-based; conditions: dose 5-20 µM
# Influenza A virus [6] = experiment: Antiviral activity against Influenza A virus A/WSN/33(H1N1) infected in human A549 cells assessed as reduction in nucleoprotein mRNA expression at 5 to 20 uM measured 24 hrs post infection by qRT-PCR analysis; format: functional, organism-based; conditions: dose 5-20 µM
# Influenza A virus [7] = experiment: Antiviral activity against Influenza A virus A/WSN/33(H1N1) infected in MDCK cells assessed as reduction in nucleoprotein […] expression at 20 uM measured after 0 to 10 hrs by Western blot based time-of-addition assay; format: functional, organism-based; conditions: time 0-10 hrs
# Influenza A virus [8] = experiment: Antiviral activity against Influenza A virus A/WSN/33(H1N1) infected in MDCK cells assessed as inhibition of virus replication and translation by measuring reduction in nucleoprotein […] expression at 20 uM measured after 2 to 8 hrs by Western blot based time-of-addition assay; format: functional, organism-based; conditions: time 2-8 hrs
# Influenza A virus [9] = experiment: Antiviral activity against Influenza A virus A/WSN/33(H1N1) infected in MDCK cells assessed as distribution of PAN protein expression in nucleus and cytoplasm measured 24 hrs post infection by DAPI staining based microscopic analysis; format: functional, organism-based
Structure (SMILES),EC50 (Influenza A virus [1]) [µM],CC50 at 48 h [2] [µM],selectivity ratio [3],further results
COc1ccc(NC(=O)[C@@H]2Cc3cc(O)c(O)cc3[C@H](Cc3ccc(O)c(O)c3)N2C=O)cc1,6.12,50.9,8.3,–
COC(=O)[C@@H]1Cc2cc(O)c(O)cc2[C@H](Cc2ccc(O)c(O)c2)N1C(=O)C(F)(F)F,6.76,76.4,11.3,IC50 [4]: 500 nM
O=CN1[C@H](C(=O)O)Cc2cc(O)c(O)cc2[C@@H]1Cc1ccc(O)c(O)c1,> 20,> 100,–,–
COC(=O)[C@@H]1Cc2cc(O)c(O)cc2[C@H](Cc2ccc(O)c(O)c2)N1C(C)=O,7.65,> 100,> 13.1,IC50 [4]: 530 nM
CCCC(=O)N1[C@H](C(=O)OC)Cc2cc(O)c(O)cc2[C@@H]1Cc1ccc(O)c(O)c1,> 10,> 100,–,–
O=CN1[C@H](C(=O)Oc2ccc(Cl)cc2Cl)Cc2cc(O)c(O)cc2[C@@H]1Cc1ccc(O)c(O)c1,3.76,21.4,5.7,–
O=C(O[C@@H]1Cc2c(O)cc(O)cc2O[C@@H]1c1cc(O)c(O)c(O)c1)c1cc(O)c(O)c(O)c1 [EPIGALOCATECHIN GALLATE],–,–,–,IC50 [4]: 5860 nM
COC(=O)[C@@H]1Cc2cc(O)c(O)cc2[C@H](Cc2ccc(O)c(O)c2)N1C=O,7.04,> 100,> 14.2,IC50 [4]: 680 nM
COC(=O)[C@@H]1Cc2cc(O)c(O)cc2[C@H](Cc2ccc(O)c(O)c2)N1C(=O)CCl,6.49,34.5,5.3,–
O=CN1[C@H](C(=O)Oc2ccccc2F)Cc2cc(O)c(O)cc2[C@@H]1Cc1ccc(O)c(O)c1,5.23,61.2,11.7,IC50 [4]: 370 nM
O=CN1[C@H](C(=O)Oc2cccc(Cl)c2)Cc2cc(O)c(O)cc2[C@@H]1Cc1ccc(O)c(O)c1,6.09,84.3,13.8,–
O=CN1[C@H](C(=O)NCc2ccco2)Cc2cc(O)c(O)cc2[C@@H]1Cc1ccc(O)c(O)c1,> 10,> 100,–,–
CCC(=O)N1[C@H](C(=O)OC)Cc2cc(O)c(O)cc2[C@@H]1Cc1ccc(O)c(O)c1,> 10,> 100,–,–
COc1ccc(CNC(=O)[C@@H]2Cc3cc(O)c(O)cc3[C@H](Cc3ccc(O)c(O)c3)N2C=O)cc1,> 10,> 100,–,–
O=CN1[C@H](C(=O)Oc2ccc(Br)cc2)Cc2cc(O)c(O)cc2[C@@H]1Cc1ccc(O)c(O)c1,3.23,32.1,9.8,–
O=CN1[C@H](C(=O)Oc2ccc(Cl)cc2)Cc2cc(O)c(O)cc2[C@@H]1Cc1ccc(O)c(O)c1,3.86,57.6,15,–
O=CN1[C@H](C(=O)Nc2ccc(Cl)cc2)Cc2cc(O)c(O)cc2[C@@H]1Cc1ccc(O)c(O)c1,7.89,> 100,> 12.7,–

Structure (SMILES),EC50 (Influenza A virus [1]) [µM],CC50 at 48 h [2] [µM],selectivity ratio [3],further results
O=CN1[C@H](C(=O)Oc2c(Cl)cccc2Cl)Cc2cc(O)c(O)cc2[C@@H]1Cc1ccc(O)c(O)c1,2.57,24.8,9.6,–
CCN(CC)C(=O)[C@@H]1Cc2cc(O)c(O)cc2[C@H](Cc2ccc(O)c(O)c2)N1C=O,> 10,> 100,–,–
O=CN1[C@H](C(=O)NCc2cccs2)Cc2cc(O)c(O)cc2[C@@H]1Cc1ccc(O)c(O)c1,> 10,> 100,–,–
O=CN1[C@H](C(=O)Oc2ccccc2Cl)Cc2cc(O)c(O)cc2[C@@H]1Cc1ccc(O)c(O)c1,4.5,> 100,> 22.2,Activity (Influenza A virus [5]): Active; Activity (Influenza A virus [6]): Active; Activity (Influenza A virus [7]): Active; Activity (Influenza A virus [8]): Active; Activity (Influenza A virus [9]): Active; IC50 [4]: 280 nM
O=CN1[C@H](C(=O)Nc2ccccc2)Cc2cc(O)c(O)cc2[C@@H]1Cc1ccc(O)c(O)c1,> 10,> 100,–,–
O=CN1[C@H](C(=O)Oc2ccccc2Br)Cc2cc(O)c(O)cc2[C@@H]1Cc1ccc(O)c(O)c1,3.21,57.1,17.8,IC50 [4]: 260 nM
CCCOC(=O)[C@@H]1Cc2cc(O)c(O)cc2[C@H](Cc2ccc(O)c(O)c2)N1C=O,7.72,75.1,9.7,–
O=CN1[C@H](C(=O)NCc2ccccc2)Cc2cc(O)c(O)cc2[C@@H]1Cc1ccc(O)c(O)c1,> 10,> 100,–,–
O=CN1[C@H](C(=O)Oc2ccccc2)Cc2cc(O)c(O)cc2[C@@H]1Cc1ccc(O)c(O)c1,7.6,77.7,10.2,IC50 [4]: 450 nM
CN(C)C(=O)[C@@H]1Cc2cc(O)c(O)cc2[C@H](Cc2ccc(O)c(O)c2)N1C=O,> 10,> 100,–,–
O=CN1[C@H](C(=O)Oc2cccc(F)c2)Cc2cc(O)c(O)cc2[C@@H]1Cc1ccc(O)c(O)c1,4.72,55.6,11.8,–
CCOC(=O)[C@@H]1Cc2cc(O)c(O)cc2[C@H](Cc2ccc(O)c(O)c2)N1C=O,6.88,> 100,> 14.5,–
COC(=O)[C@@H]1Cc2cc(O)c(O)cc2[C@H](Cc2ccc(O)c(O)c2)N1C(=O)CNC(C)=O,> 20,–,–,–
CN1CCc2cc(O)c(O)cc2C1Cc1ccc(O)c(O)c1 (racemic),> 20,> 100,–,IC50 [4]: 1880 nM
CN(Cc1ccccc1)C(=O)[C@@H]1Cc2cc(O)c(O)cc2[C@H](Cc2ccc(O)c(O)c2)N1C=O,8.68,91.9,10.6,–
CCC(CC)[C@H](NC(C)=O)[C@@H]1[C@H](O)[C@@H](C(=O)O)C[C@H]1NC(=N)N [PERAMIVIR ANHYDROUS],–,> 100,> 19,–
